# Reference: patent EP3724209B1, “ELASTOMERIC PEPTIDE” (Politecnico di Milano, priority 2017, dated 2019)
# Where a SMILES comes first, the peptide text is derived from it. Where no end group is shown, it is not given here. [ ]: non-standard residue; d: D form. Tyr(3,5-Br2) = N[C@@H](Cc1cc(Br)c(O)c(Br)c1)C(=O)O
# Experiments:
# [1] = system: Pseudokirchneriella sub capitata
# Protocol: An ecotoxicity test on Pseudokirchneriella sub capitata was performed to evaluate I% (inhibition percentage effect) and IC50 (concentration which determines the 50% inhibition of growth on the population) of the halogenated peptide SDS-Y(3,5 Br)-GAP.
# The halogenated peptide SDS-Y(3,5 Br)-GAP was dissolved in water at 100 mg/l and tested at the following concentrations: 50 mg/l, 25 mg/l, 12.5 mg/l and 6.25 mg/l. Each sample was tested in triplicate.
# After 72 hours of incubation with the sample or controls, a spectrophotometric test was performed at 670nm as a measure of cell density.
# [2] = system: HeLa (Human cervical cancer cells); assay: CellTiter-Glo Luminescent Cell Viability Assay; format: cell-based; settings: 24 hours incubation
# Protocol: HeLa (Human cervical cancer cells) were grown in DMEM supplemented with 1 mM sodium pyruvate, 10 mM HEPES buffer, 100 U/mL penicillin, 0.1 mg/mL streptomycin, 2 mM glutamine and 10% FBS (hereafter referred to as complete medium), at 37°C in a 5% CO2 humidified atmosphere. Cells were splitted the day before seeding and used within eight passages. The cells were seeded at a density of 7000 cell/cm^2. For evaluating cell viability, the day after the seeding the cell medium was replaced with medium containing the wild type or the halogenated oligopeptides and cells were incubated for 24 hours.
# solubility test = format: physicochemical; settings: for aspect of solution after cooling: 100 mM solution; for aspect of solution after heating: 100 mM solutions (5 mg in 50 µl); for solubility: buffers at pH 3, 7, and 12 (10 mM) and pure water
# Protocol: The isoelectric point (calculated on http://web.expasy.org/compute-pi/) of SDSYGAP (SEQ ID no. 6), comparative, and an oligopeptide according to the present invention, i.e., SDS-Y(3,5 Br)-GAP is 3.8. Three buffers at pH 3, 7, and 12 (10 mM concentration) and pure water were used as solvent for the two oligopeptides.
# [3] = Dynamic Light Scattering aging study (autocorrelation lag time); format: physicochemical; settings: 10 mM in water
# Protocol: Dynamic Light Scattering measurements were performed on an ALV/CGS-3 Platform-based Goniometer System equipped with an ALV-7004 correlator and an ALV/CGS-3 goniometer. The signal was detected by an ALV-Static and Dynamic Enhancer detection unit. The light source was the second harmonic of a diode-pumped Coherent Innova Nd:YAG laser (λ = 532 nm), linearly polarized in the vertical direction. Measurements were performed at 25°C. Approximately 1 ml of sample solution was transferred into the cylindrical Hellma scattering cell.
# The dynamic information on structures present in the peptide solutions were derived from the normalized autocorrelation function g2 (q, τ) of the scattered intensity, which is measured according to g2 (q, τ) = (〈I(q, t)I(q,t+τ)〉)/((〈I(q, t)〉)^2) [formula] where q is the scattering vector, τ is the relaxation time and I is the scattered intensity. Higher relaxation times correspond to larger self-assembled structures. […] Results are reported in Figure 7, as graphs showing the autocorrelation functions of wild type (panel A) or halogenated (panel B) oligopeptide 10 mM in water at 90°C. The autocorrelation functions at 90°C show increasing Lag Time, i.e., increasing dimensions of the self-assembled structures, over time. Table 1 summarizes and compares the results, showing that halogenated oligopeptide form bigger structures compared to the wild type one. This is a further indication that bromine atoms play a role in the aggregation behavior of the peptide sequence. The same aging study was performed in buffer at pH 7, with similar results (data not shown).
compound,measurement,setting,value
"C[C@H](NC(=O)CNC(=O)[C@H](Cc1cc(Br)c(O)c(Br)c1)NC(=O)[C@H](CO)NC(=O)[C@H](CC(=O)O)NC(=O)[C@@H](N)CO)C(=O)N1CCC[C@H]1C(=O)O [SDS-Y(3,5 Br)-GAP] (H-SDS[Tyr(3,5-Br2)]GAP-OH)",ecotoxicity,[1],not ecotoxic
same,IC50 (concentration which determines the 50% inhibition of growth on the population),[1]; 72 hours of incubation,54 µg/mL
same,cell viability,[2],not toxic even at high concentrations
same,aspect of solution after cooling,solubility test,milky
same,aspect of solution after heating,solubility test,completely clear
same,solubility,solubility test,good solubility properties in all the tested conditions
SDSYGAP [SDSYGAP],cell viability,[2],not toxic even at high concentrations
same,Lag time,[3]; aging time t=0,1.512 ms
same,Lag time,[3]; aging time t=1 week,3.826 ms
same,Lag time,[3]; aging time t=24 h,2.859 ms
same,Lag time,[3]; aging time t=48 h,1.919 ms
same,aspect of solution after cooling,solubility test,still clear
same,aspect of solution after heating,solubility test,completely clear
same,solubility,solubility test,good solubility properties in all the tested conditions
